doi:10.1101/2024.03.07.583918v2 (biorxiv, 2024)

Biological target: T1, CheR (Pectobacterium atrosepticum, UniProt Q6D6I8)
T1 sequence (Q6D6I8 1-290): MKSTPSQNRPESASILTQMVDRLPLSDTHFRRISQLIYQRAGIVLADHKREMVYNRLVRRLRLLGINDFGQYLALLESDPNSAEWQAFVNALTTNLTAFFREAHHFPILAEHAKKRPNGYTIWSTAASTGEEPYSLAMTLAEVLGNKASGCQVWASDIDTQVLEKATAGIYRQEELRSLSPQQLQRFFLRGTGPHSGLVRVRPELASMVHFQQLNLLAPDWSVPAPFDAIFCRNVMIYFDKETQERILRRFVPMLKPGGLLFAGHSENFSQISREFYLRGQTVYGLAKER
Assay: isothermal titration calorimetry
Type: binding

Structure (SMILES) | Kd [µM]
Nc1ncnc2c1ncn2[C@@H]1O[C@H](CSCC[C@H](N)C(=O)O)[C@@H](O)[C@H]1O [SAH] | 0.48 ± 0.02
C[S+](CC[C@H](N)C(=O)O)C[C@H]1O[C@@H](n2cnc3c(N)ncnc32)[C@H](O)[C@@H]1O (some centres unmarked) [SAM] | 140 ± 20
